The SangsterLogP compilation

Conditions: pH 2.0
`COc1ccc(N(CC(=O)N[C@@H]2CCS(=O)(=O)C2)S(=O)(=O)c2ccc(Cl)c(Cl)c2)cc1` showed a logD of 3.32.
In the case of `COc1ccccc1NC(=S)N[C@H](NC(=O)c1ccccc1C)C(Cl)(Cl)Cl`, the logD is reported as 3.95.
In the case of `COc1ccc(NC(=O)[C@H](OC(=O)CNC(=O)c2ccc(C)s2)c2ccccc2)cc1Cl`, the logD is reported as 4.54.
`O=C1[C@@H](CSCc2ccccc2)NC(=S)N1C1CCCCC1` showed a logD of 4.58.
For `CC(C)N(Cc1nnc(-c2ccc(Cl)cc2)o1)C(=O)[C@@H]1COc2ccccc2O1`, the logD was 4.09.
With `COCON1C(=O)CN(C(C)=O)[C@H]1c1ccc(Cl)cc1Cl` the logD was 1.98.

Same assay, conditions: pH 5.0
In the case of `CC(=O)C12c3ccccc3C(c3ccccc31)[C@H]1C(=O)N(c3ccc(C)c([N+](=O)[O-])c3)C(=O)[C@@H]12`, the logD is reported as 4.74.
`CSc1ccc(S(=O)(=O)N(CC(=O)NC[C@@H]2CCCO2)c2ccc(C)cc2)cc1` gave a logD of 4.3.
In the case of `C[C@]12CC[C@@H]3C[C@@]1(C(=O)NCC(F)(F)F)OC[C@@]32C`, the logD is reported as 3.11.
For `CCOc1ccc(C[C@H]2c3cc(OCC)c(OCC)cc3CCN2C(=O)c2scnc2C)cc1OCC`, the logD was 4.98.
For `COc1ccc([C@H]2CC(=O)C3=C(C2)Nc2ccc4ccccc4c2[C@@H]3c2ccc3c(c2)OCO3)cc1`, the logD was 5.77.
`CCOC(=O)c1c(C)nc(SC[C@@]2(O)CCCC[C@@H]2SC)c(C#N)c1-c1ccccc1` showed a logD of 6.01.
`CCCCOc1ccc(/C=C/C(=O)NC(C)C)cc1` showed a logD of 4.45.
In the case of `C[C@@H]1CCC2[C@]3(C)COC(C)(C)O[C@H]3CC[C@]2(C)[C@@]12CCC1(COC(=O)C1)O2` (some centres not stated), the logD is reported as 4.24.
Work on `C[C@@H](Oc1ccc(F)cc1F)C(=O)c1cn(-c2ccc(OC(F)(F)F)cc2)nn1` yielded a logD of 5.83.
With `COc1ccccc1[C@@H]1CC(=O)Nc2cc(C)c(C)cc21` the logD was 4.17.
In the case of `O=C(Nc1cccc(Cl)c1)c1cc2n(n1)[C@H](C(F)(F)F)C[C@@H](c1ccccc1)N2`, the logD is reported as 5.92.
In the case of `CC(C)CN1C(=O)/C(=C/[C@@H]2CC=CCC2)SC1=S`, the logD is reported as 6.66.
`CS(=O)(=O)N(CC(=O)N1CCc2ccccc2C1)c1ccc(OCc2ccccc2)cc1` gave a logD of 4.91.
`COc1ccc(Oc2c(C(F)(F)F)oc3cc(OC(=O)N4CCOCC4)ccc3c2=O)cc1` showed a logD of 4.63.
For `Cc1c(Cl)c(C(F)(F)F)nn1[C@@H](C)C(=O)N1CCOCC1`, the logD was 3.08.
With `CC(C)C(=O)N[C@H](Oc1ccc(C=O)cc1)C(Cl)(Cl)Cl` the logD was 3.68.
With `O=C(NC[C@@H]1CCCO1)c1sc2ccccc2c1Cl` the logD was 3.56.
In the case of `COC(=O)c1cccc(NC(=O)c2ccc(C)cc2)c1`, the logD is reported as 3.72.
For `OCC#CC(O)(c1ccc(F)cc1)c1ccc(F)cc1`, the logD was 3.61.
In the case of `CC(=O)c1c(C)[nH]c(C(=O)COC(=O)c2ccccc2NC(=O)c2ccco2)c1C`, the logD is reported as 4.73.
With `C[C@H](C(=O)NC1CCCC1)N(c1ccc(Cl)cc1)S(C)(=O)=O` the logD was 3.48.
`Cc1cccc(NC(=O)NC(C)C)c1C` gave a logD of 2.7.
Work on `CCOCCOC(=O)c1ccc(NC(=O)COc2ccc(C)cc2Br)cc1` yielded a logD of 5.36.
With `CCOC(=O)CN1C(=O)[C@@H](OC(=O)c2ccccc2)[C@@H](OC(=O)c2ccccc2)C1=O` the logD was 5.
`CS(=O)(=O)N(CC(=O)Nc1ccccc1C(=O)NCc1ccco1)c1ccc(Cl)cc1` showed a logD of 4.32.
Compound `O=C(/C=C/c1ccccc1)Nc1cccc(NC(=O)c2cccc(Cl)c2)c1` has a logD of 5.53.
Work on `COc1ccc([C@H]2C(C#N)=C(N)N(c3ccc(Cl)cc3)C3=C2C(=O)CC(C)(C)C3)cc1OC` yielded a logD of 4.34.
For `CC1(C)C[C@](C)(O)[P@](C)(=O)O1`, the logD was 0.71.
`CC1(C)[C@H](C(=O)N2CCOCC2)CC[C@]1(C)C(=O)N1CCOCC1` showed a logD of 2.46.
Compound `C[C@@H]1CCC[C@H](C)N1C(=O)COC(=O)c1ccc2c(c1)S(=O)(=O)c1ccccc1C2=O` has a logD of 4.39.
In the case of `Cc1noc(C)c1C(=O)O[C@@H](C)C(=O)Nc1ccc2c(c1)OCCO2`, the logD is reported as 2.78.
For `COc1ccc([C@@H]2[C@@H]3CCCC=C3C(C#N)=C(N)C2(C#N)C#N)cc1COCC(F)(F)F`, the logD was 5.5.
For `Cc1ccc(C(=O)COc2cccc(N3C(=O)[C@@H]4[C@H]5CC[C@H](C5)[C@@H]4C3=O)c2)cc1C`, the logD was 4.71.
With `CCc1ccccc1NC(=O)[C@]12CC[C@](C)(C(=O)O1)C2(C)C` the logD was 3.31.
In the case of `CC(=O)c1cccc(N2C(=O)[C@@H]3[C@H](C2=O)[C@@H]2C=C[C@H]3C2=C(c2ccc(C)cc2)c2ccc(C)cc2)c1`, the logD is reported as 6.25.
`CCCC[C@H](CC)Cn1c(SCC(=O)Nc2ccc(OC)cc2)nc2c1c(=O)n(C)c(=O)n2C` showed a logD of 5.51.
In the case of `Cc1ccc([N+](=O)[O-])cc1N1C(=O)[C@@H]2[C@@H](C1=O)[C@@H](C(=O)C(C)(C)C)N1N=CC=C[C@H]21`, the logD is reported as 3.85.
In the case of `COc1ccc(N(C(=O)C2CCCCC2)S(=O)(=O)c2ccc3c4c(cccc24)C(=O)N3C)cc1`, the logD is reported as 5.26.
In the case of `CC(=O)Oc1ccc(C(=O)Nc2cccc(C(=O)c3cccc(NC(=O)c4ccc(OC(C)=O)cc4)c3)c2)cc1`, the logD is reported as 5.34.
`Cc1c(Nc2nc3ccccc3nc2Nc2cccc(Cl)c2)c(=O)n(-c2ccccc2)n1C` showed a logD of 5.96.
With `Cc1ccc([C@@H](O)P(=O)(OCC(C)C)OCC(C)C)cc1` the logD was 4.44.
